According to US7256257B2, “Pentapeptide compounds and uses related thereto” (priority 2001, dated 2007):
Where a SMILES comes first, the peptide text is derived from it. [ ]: non-standard residue; d: D form. The star is where a group is joined. Dolaproine = CO[C@@H]([C@@H]1CCCN1)[C@@H](C)C(=O)O; Dil = CC[C@H](C)[C@H](NC)[C@@H](CC(=O)O)OC; NMe2Val = CC(C)[C@@H](C(=O)*)N(C)C; dPhe(ol) = N[C@@H](CO)Cc1ccccc1; Phe(ol) = N[C@H](CO)Cc1ccccc1

How the values were obtained:
[1] = system: Daudi Burkitt's lymphoma cells; experiment: In vitro cytotoxicity, 3H-thymidine incorporation, Daudi cells; assay type: cell-based; conditions: for IC50: Daudi Burkitt's lymphoma, exposed 1-2 hours, 3H-thymidine incorporation 72 hours later
Procedure: (§1) To obtain the results shown in Table 4, the cells were exposed to drugs for 1-2 hours, and the cytotoxic effects were determined 72 hours later by the incorporation of ^3H-thymidine into DNA. Antigen expression was determined by flow cytometry and is expressed in terms of mean fluorescence intensity (MFI).
(§2) These figures show the cytotoxic effects of auristatin E and auristatin E-containing conjugates on L2987 human lung adenocarcinoma cells (FIG. 19A); and various hematologic cell lines treated with AC10-S-40a (FIG. 19B). In all assays, cells were exposed to the drugs for 2 hours, washed, and the cytotoxic activities were measured 72 hours later using ^3H-thymidine incorporation.

[2] = system: Karpas anaplastic large cell lymphoma; experiment: In vitro cytotoxicity, 3H-thymidine incorporation, Karpas cells; assay type: cell-based; conditions: Karpas ALCL; exposed 1-2 hours, 3H-thymidine incorporation 72 hours later
Procedure: as §1, §2

L428 Hodgkin's lymphoma = experiment: In vitro cytotoxicity, 3H-thymidine incorporation, L428 cells; assay type: cell-based; conditions: 3H-thymidine incorporation 72 hours later
Procedure: as §1, §2

AU565 (breast) = experiment: In vitro cytotoxicity, 3H-thymidine incorporation, AU565 cells; assay type: cell-based; conditions: exposed 1-2 hours, 3H-thymidine incorporation 72 hours later
Procedure: as §1

SKBR3 (breast) = experiment: In vitro cytotoxicity, 3H-thymidine incorporation, SKBR3 cells; assay type: cell-based; conditions: 3H-thymidine incorporation 72 hours later
Procedure: as §1

Karpas 299 (ALCL) = experiment: In vitro cytotoxicity, XTT, Karpas 299 cells; assay type: cell-based; conditions: exposed 2 hr, washed, XTT 96 hr later
Procedure: (§3) In vitro cytotoxicity experiments were performed to compare the activities of auristatin E (29a) and drugs of this invention. 3396 and Karpas cells were exposed to the drug for 1 and 2 hr respectively. The cells were washed, and cytotoxicity was determined 96 hr later using XTT to measure mitochondrial integrity.

[3] = system: L2987 human lung adenocarcinoma cells; experiment: In vitro cytotoxicity, 3H-thymidine incorporation, L2987 cells; assay type: cell-based; conditions: for IC50: L2987 lung, exposed 1-2 hours, 3H-thymidine incorporation 72 hours later
Procedure: as §1
(§4) The cytotoxic effects of the mAb-S-36 conjugates on L2987 human lung adenocarcinoma cells (strongly BR96 antigen positive, weakly S2C6 antigen positive) and on Kato III human gastric carcinoma cells, (strongly BR96 antigen positive, S2C6 antigen negative) are shown in FIGS. 18A, 18B and 18C. These figures show the in vitro cytotoxicity of drugs and mAb-drug conjugates on (FIG. 18A) and (FIG. 18B) L2987 human lung adenoma cells, and (FIG. 18A) and (FIG. 18C) Kato III human gastric carcinoma cells. L2987 cells are positive for the antigens recognized by BR96 (LeY) and S2C6 (CD40), but express the LeY antigen at higher levels. Kato III cells are positive for the LeY antigen and negative for CD40. Cells were exposed to the conjugates for 2 hours, washed, and the cytotoxic effects were determined 3 days later using a thymidine incorporation assay.
as §2

[4] = system: Kato III human gastric carcinoma cells; experiment: In vitro cytotoxicity, 3H-thymidine incorporation, Kato III cells; assay type: cell-based; conditions: exposed 1-2 hours, 3H-thymidine incorporation 72 hours later
Procedure: as §1, §4

L540 Hodgkin's lymphoma = experiment: In vitro cytotoxicity, 3H-thymidine incorporation, L540 cells; assay type: cell-based; conditions: 3H-thymidine incorporation 72 hours later
Procedure: as §1, §2

IM-9 (Multiple myeloma) = experiment: In vitro cytotoxicity, 3H-thymidine incorporation, IM-9 cells; assay type: cell-based; conditions: exposed 1-2 hours, 3H-thymidine incorporation 72 hours later
Procedure: as §1, §2

[5] = system: 3396 human breast carcinoma cells; experiment: In vitro cytotoxicity, XTT, 3396 cells; assay type: cell-based; conditions: 3396 breast, exposed 1 hr, washed, XTT 96 hr later
Procedure: as §3

[6] = system: purified esterases from human livers; experiment: Exposure to purified liver esterases (human); assay type: in vitro ADME; conditions: prolonged exposure
[7] = system: purified esterases from guinea pig livers; experiment: Exposure to purified liver esterases (guinea pig); assay type: in vitro ADME; conditions: prolonged exposure
[8] = system: purified esterases from rabbit livers; experiment: Exposure to purified liver esterases (rabbit); assay type: in vitro ADME; conditions: prolonged exposure
[9] = system: purified esterases from rhesus monkey livers; experiment: Exposure to purified liver esterases (rhesus monkey); assay type: in vitro ADME; conditions: prolonged exposure
Stability in human serum = assay type: in vitro ADME; conditions: 120 hours incubation at 37 C
[10] = Homo sapiens, Breast carcinoma cell

## CC[C@H](C)[C@@H]([C@@H](CC(=O)N1CCC[C@H]1[C@H](OC)[C@@H](C)C(=O)N[C@H](C)[C@@H](O)c1ccccc1)OC)N(C)C(=O)[C@@H](NC(=O)[C@H](C(C)C)N(C)C)C(C)C [Compound 29a, N,N-dimethyl-L-valyl-N-[(1S,2R)-4-[(2S)-2-[(1R,2R)-3-[[(1R,2S)-2-hydroxy-1-methyl-2-phenylethyl]amino]-1-methoxy-2-methyl-3-oxopropyl]-1-pyrrolidinyl]-2-methoxy-1-[(1S)-1-methylpropyl]-4-oxobutyl]-N-methyl-L-valinamide, reference compound]
[1]; Homo sapiens
  IC50: 0.9 nM
[2]
  IC50: 1.2 nM
L428 Hodgkin's lymphoma; Homo sapiens, L-428, exposed 1-2 hours
  IC50: 1.5 nM
AU565 (breast); Homo sapiens
  IC50: 1.5 nM
SKBR3 (breast); Homo sapiens, SK-BR-3, exposed 1-2 hours
  IC50: 1.5 nM
Karpas 299 (ALCL); Homo sapiens
  IC50: 1.2 nM
[3]; Homo sapiens
  IC50: 1 nM
[4]; Homo sapiens
  IC50: 0.7 nM
L540 Hodgkin's lymphoma; Homo sapiens, L-540, exposed 1-2 hours
  IC50: 1.5 nM
IM-9 (Multiple myeloma); Homo sapiens
  IC50: 3.5 nM
[5]; [10]
  IC50: 6 nM

## CC[C@H](C)[C@@H]([C@@H](CC(=O)N1CCC[C@H]1[C@H](OC)[C@@H](C)C(=O)N[C@H](CO)Cc1ccccc1)OC)N(C)C(=O)[C@@H](NC(=O)[C@H](C(C)C)N(C)C)C(C)C [Compound 32] (NMe2Val-V[Dil][Dolaproine][Phe(ol)])
[5]; [10]
  IC50: 4.5 nM

## CC[C@H](C)[C@@H]([C@@H](CC(=O)N1CCC[C@H]1[C@H](OC)[C@@H](C)C(=O)N[C@@H](CO)Cc1ccccc1)OC)N(C)C(=O)[C@@H](NC(=O)[C@H](C(C)C)N(C)C)C(C)C [Compound 33] (NMe2Val-V[Dil][Dolaproine][dPhe(ol)])
[5]; [10]
  IC50: 70 nM

## CC[C@H](C)[C@@H]([C@@H](CC(=O)N1CCC[C@H]1[C@H](OC)[C@@H](C)C(=O)N[C@@H](C)[C@H](OC(=O)c1ccc(C(C)=O)cc1)c1ccccc1)OC)N(C)C(=O)[C@@H](NC(=O)[C@H](C(C)C)N(C)C)C(C)C [Compound 39a, 4-acetyl-benzoic Ester of Auristatin E]
[1]; Daudi Burkitt's lymphoma cells
  times less cytotoxic than auristatin E (29a): approximately 17 times
[1]
  IC50: 15 nM
[2]
  IC50: 13 nM
L428 Hodgkin's lymphoma; exposed 1-2 hours
  IC50: 13 nM
AU565 (breast)
  IC50: 6 nM
[6]
  conversion to auristatin E (29a) by liver esterases: failed to demonstrate any conversion
SKBR3 (breast); exposed 1-2 hours
  IC50: 6 nM
Karpas 299 (ALCL)
  IC50: 4 nM
[3]; L2981 cells (so in the source)
  cytotoxicity relative to auristatin E (29a): as cytotoxic as auristatin E (29a)
[3]
  IC50: 0.9 nM
[7]
  conversion to auristatin E (29a) by liver esterases: failed to demonstrate any conversion
[4]
  IC50: 5 nM
L540 Hodgkin's lymphoma; exposed 1-2 hours
  IC50: 16 nM
[8]
  conversion to auristatin E (29a) by liver esterases: failed to demonstrate any conversion
IM-9 (Multiple myeloma)
  IC50: 50 nM
[9]
  conversion to auristatin E (29a) by liver esterases: failed to demonstrate any conversion
Stability in human serum
  hydrolysis in human serum: no detectable hydrolysis
[5]
  IC50: 16 nM

## CC[C@H](C)[C@@H]([C@@H](CC(=O)N1CCC[C@H]1[C@H](OC)[C@@H](C)C(=O)N[C@H](COC(=O)c1ccc(C(C)=O)cc1)Cc1ccccc1)OC)N(C)C(=O)[C@@H](NC(=O)[C@H](C(C)C)N(C)C)C(C)C [Compound 47]
Karpas 299 (ALCL); Homo sapiens
  IC50: 0.075 nM
[5]; [10]
  IC50: 0.35 nM

## CC[C@H](C)[C@@H]([C@@H](CC(=O)N1CCC[C@H]1[C@H](OC)[C@@H](C)C(=O)N[C@@H](COC(=O)c1ccc(C(C)=O)cc1)Cc1ccccc1)OC)N(C)C(=O)[C@@H](NC(=O)[C@H](C(C)C)N(C)C)C(C)C [Compound 49]
[5]; [10]
  IC50: 34 nM

## CC[C@H](C)[C@@H]([C@@H](CC(=O)N1CCC[C@H]1[C@H](OC)[C@@H](C)C(=O)N[C@H](C)[C@@H](OC(=O)CCCCC(=O)c1ccccc1)c1ccccc1)OC)N(C)C(=O)[C@@H](NC(=O)[C@H](C(C)C)N(C)C)C(C)C [Compound 50, 5-benzoylvaleric Ester of Auristatin E]
[5]; [10]
  IC50: 3 nM

## CO[C@H]([C@@H](C)C(=O)N[C@H](C)[C@@H](OC(=O)CC(C)=O)c1ccccc1)[C@@H]1CCCN1C(=O)C[C@@H](OC)[C@H](C)N(C)C(=O)[C@@H](NC(=O)[C@H](C(C)C)N(C)C)C(C)C [Compound 52, Acetoacetic Ester of Auristatin E]
[5]; [10]
  IC50: 20 nM

## CC[C@H](C)[C@@H]([C@@H](CC(=O)N1CCC[C@H]1[C@H](OC)[C@@H](C)C(=O)N[C@H](COc1ccc(C(C)=O)cc1)Cc1ccccc1)OC)N(C)C(=O)[C@@H](NC(=O)[C@H](C(C)C)N(C)C)C(C)C [Compound 58]
[5]; [10]
  IC50: 2.5 nM
